These results are taken from the supplement of paper PMC10307832.

Common to all, as to assay: relative viability (nuclei count vs DMSO), 5 days (fraction); higher = more cells survive
Compound in the assay “SGI-1776 + Dasatinib”: CN1CCC(CNc2ccc3ncc(-c4cccc(OC(F)(F)F)c4)n3n2)CC1 [SGI-1776] + Cc1nc(Nc2ncc(C(=O)Nc3c(C)cccc3Cl)s2)cc(N2CCN(CCO)CC2)n1 [Dasatinib] (partner 0.075 µM)
In short, it runs like this:
(§1)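 Cells from lung cancer lines were seeded into 1536-well plates and, one day later, dosed by pin tool. Treatments were either a single drug or a fixed dose of an anchor drug with five library-drug doses (not always all listed) in √10 steps. After 5 days, nuclei were stained in a one-step fixation (final 0.05% Triton X-100, 1% formaldehyde, 1 ug/ml Hoechst) and counted on 4× images, and relative viability is the treated-to-vehicle nuclei ratio, as the median of duplicate plates.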

Compound in the assay “SGI-1776 + Phenformin”: CN1CCC(CNc2ccc3ncc(-c4cccc(OC(F)(F)F)c4)n3n2)CC1 [SGI-1776] + N=C(N)NC(=N)NCCc1ccccc1 [Phenformin] (partner 250 µM)
Summed up:
as §1

Compound in the assay “SGI-1776 + AZD7762”: CN1CCC(CNc2ccc3ncc(-c4cccc(OC(F)(F)F)c4)n3n2)CC1 [SGI-1776] + NC(=O)Nc1cc(-c2cccc(F)c2)sc1C(=O)N[C@H]1CCCNC1 [AZD7762] (partner 0.2 µM)
Summed up:
as §1

Compound in the assay “Entinostat + Decitabine”: Nc1ccccc1NC(=O)c1ccc(CNC(=O)OCc2cccnc2)cc1 [Entinostat] + Nc1ncn([C@H]2C[C@H](O)[C@@H](CO)O2)c(=O)n1 [Decitabine] (partner 2 µM)
Summed up: as §1

Turning to NCI-H460, the relative viability in the assay with SGI-1776 + Dasatinib (first compound 0.08 µM) stood at 0.52; with SGI-1776 + Dasatinib (first compound 0.8 µM), 0.543; with SGI-1776 + Dasatinib (first compound 2.53 µM) it was 0.508; with SGI-1776 + Dasatinib (first compound 8 µM), 0.299; with SGI-1776 + Phenformin (first compound 0.08 µM), 0.502; in the assay with SGI-1776 + Phenformin (first compound 0.8 µM), 0.471. Also, the relative viability was 0.477 with SGI-1776 + Phenformin (first compound 2.53 µM); 0.361 in the assay with SGI-1776 + Phenformin (first compound 8 µM); 0.717 with SGI-1776 + AZD7762 (first compound 0.08 µM); 0.669 with SGI-1776 + AZD7762 (first compound 0.8 µM); 0.572 in the assay with SGI-1776 + AZD7762 (first compound 2.53 µM); 0.707 with SGI-1776 + AZD7762 (first compound 8 µM). Moreover, the relative viability with Entinostat + Decitabine (first compound 0.02 µM) is 0.438; in the assay with Entinostat + Decitabine (first compound 0.06325 µM), 0.372; with Entinostat + Decitabine (first compound 0.2 µM) it was 0.203; in the assay with Entinostat + Decitabine (first compound 0.6325 µM), 0.0553; in the assay with Entinostat + Decitabine (first compound 2 µM), 0.0422.

For NCI-H522, the relative viability came out at 0.828 in the assay with SGI-1776 + Dasatinib (first compound 0.08 µM); 0.849 with SGI-1776 + Dasatinib (first compound 0.8 µM); 0.843 in the assay with SGI-1776 + Dasatinib (first compound 2.53 µM); 0.729 with SGI-1776 + Dasatinib (first compound 8 µM); 0.708 in the assay with SGI-1776 + Phenformin (first compound 0.08 µM); 0.676 with SGI-1776 + Phenformin (first compound 0.8 µM). Further, the relative viability with SGI-1776 + Phenformin (first compound 2.53 µM) was 0.698; with SGI-1776 + Phenformin (first compound 8 µM) it was 0.563; with SGI-1776 + AZD7762 (first compound 0.08 µM), 0.819; with SGI-1776 + AZD7762 (first compound 0.8 µM) it was 0.747; in the assay with SGI-1776 + AZD7762 (first compound 2.53 µM), 0.789; in the assay with SGI-1776 + AZD7762 (first compound 8 µM), 0.613. Further, the relative viability with Entinostat + Decitabine (first compound 0.02 µM) was 0.65; in the assay with Entinostat + Decitabine (first compound 0.06325 µM) it was 0.684; in the assay with Entinostat + Decitabine (first compound 0.2 µM), 0.693; with Entinostat + Decitabine (first compound 0.6325 µM), 0.666; with Entinostat + Decitabine (first compound 2 µM), 0.639.

On to NCI-H596, for which the relative viability with SGI-1776 + Dasatinib (first compound 0.08 µM) came out at 0.571; with SGI-1776 + Dasatinib (first compound 0.8 µM), 0.528; in the assay with SGI-1776 + Dasatinib (first compound 2.53 µM) it was 0.51; in the assay with SGI-1776 + Dasatinib (first compound 8 µM), 0.441; in the assay with SGI-1776 + Phenformin (first compound 0.08 µM), 0.724; with SGI-1776 + Phenformin (first compound 0.8 µM), 0.688. Besides, the relative viability with SGI-1776 + Phenformin (first compound 2.53 µM) is 0.701; with SGI-1776 + Phenformin (first compound 8 µM), 0.704; with SGI-1776 + AZD7762 (first compound 0.08 µM) it was 1.17; with SGI-1776 + AZD7762 (first compound 0.8 µM), 1.15; with SGI-1776 + AZD7762 (first compound 2.53 µM) it was 0.984; in the assay with SGI-1776 + AZD7762 (first compound 8 µM) it was 0.897. The relative viability stood at 0.9 with Entinostat + Decitabine (first compound 0.02 µM); 1.11 with Entinostat + Decitabine (first compound 0.06325 µM); 0.869 in the assay with Entinostat + Decitabine (first compound 0.2 µM); 1.01 with Entinostat + Decitabine (first compound 0.6325 µM); 0.66 with Entinostat + Decitabine (first compound 2 µM).

For the cell line NCI-H647, the relative viability with SGI-1776 + Dasatinib (first compound 0.08 µM) came out at 0.188; with SGI-1776 + Dasatinib (first compound 0.8 µM), 0.184; with SGI-1776 + Dasatinib (first compound 2.53 µM), 0.111; in the assay with SGI-1776 + Dasatinib (first compound 8 µM), 0.117; with SGI-1776 + Phenformin (first compound 0.08 µM), 0.499; in the assay with SGI-1776 + Phenformin (first compound 0.8 µM), 0.499. Also, the relative viability in the assay with SGI-1776 + Phenformin (first compound 2.53 µM) was 0.47; with SGI-1776 + Phenformin (first compound 8 µM), 0.151; in the assay with SGI-1776 + AZD7762 (first compound 0.08 µM) it was 0.479; with SGI-1776 + AZD7762 (first compound 0.8 µM), 0.49; in the assay with SGI-1776 + AZD7762 (first compound 2.53 µM), 0.414; with SGI-1776 + AZD7762 (first compound 8 µM), 0.319. Besides, the relative viability with Entinostat + Decitabine (first compound 0.02 µM) came out at 0.382; in the assay with Entinostat + Decitabine (first compound 0.06325 µM), 0.256; with Entinostat + Decitabine (first compound 0.2 µM), 0.258; in the assay with Entinostat + Decitabine (first compound 0.6325 µM), 0.166; with Entinostat + Decitabine (first compound 2 µM), 0.166.

For NCI-H650, the relative viability with SGI-1776 + Dasatinib (first compound 0.08 µM) was 0.492; in the assay with SGI-1776 + Dasatinib (first compound 0.8 µM), 0.497; with SGI-1776 + Dasatinib (first compound 2.53 µM), 0.434; in the assay with SGI-1776 + Dasatinib (first compound 8 µM) it was 0.37; with SGI-1776 + Phenformin (first compound 0.08 µM), 0.521; with SGI-1776 + Phenformin (first compound 0.8 µM) it was 0.438. Further, the relative viability with SGI-1776 + Phenformin (first compound 2.53 µM) was determined as 0.435; in the assay with SGI-1776 + Phenformin (first compound 8 µM), 0.368; with SGI-1776 + AZD7762 (first compound 0.08 µM) it was 1.21; with SGI-1776 + AZD7762 (first compound 0.8 µM), 0.941; in the assay with SGI-1776 + AZD7762 (first compound 2.53 µM), 0.994; with SGI-1776 + AZD7762 (first compound 8 µM), 1.17. The relative viability with Entinostat + Decitabine (first compound 0.02 µM) was 0.312; with Entinostat + Decitabine (first compound 0.06325 µM), 0.336; with Entinostat + Decitabine (first compound 0.2 µM) it was 0.252; with Entinostat + Decitabine (first compound 0.6325 µM) it was 0.278; with Entinostat + Decitabine (first compound 2 µM) it was 0.226.

Take NCI-H727: the relative viability with SGI-1776 + Dasatinib (first compound 0.08 µM) is 0.4; with SGI-1776 + Dasatinib (first compound 0.8 µM) it was 0.426; with SGI-1776 + Dasatinib (first compound 2.53 µM), 0.351; with SGI-1776 + Dasatinib (first compound 8 µM), 0.356; with SGI-1776 + Phenformin (first compound 0.08 µM) it was 0.525; with SGI-1776 + Phenformin (first compound 0.8 µM), 0.577. For the same cell line, the relative viability is 0.552 in the assay with SGI-1776 + Phenformin (first compound 2.53 µM); 0.498 with SGI-1776 + Phenformin (first compound 8 µM); 0.696 in the assay with SGI-1776 + AZD7762 (first compound 0.08 µM); 0.739 with SGI-1776 + AZD7762 (first compound 0.8 µM); 0.807 in the assay with SGI-1776 + AZD7762 (first compound 2.53 µM); 0.583 in the assay with SGI-1776 + AZD7762 (first compound 8 µM). Further, the relative viability stood at 0.913 with Entinostat + Decitabine (first compound 0.02 µM); 1.35 in the assay with Entinostat + Decitabine (first compound 0.06325 µM); 1.03 with Entinostat + Decitabine (first compound 0.2 µM); 0.853 in the assay with Entinostat + Decitabine (first compound 0.6325 µM); 0.681 with Entinostat + Decitabine (first compound 2 µM).

Consider NCI-H838, for which the relative viability with SGI-1776 + Dasatinib (first compound 0.08 µM) turned out to be 0.282; with SGI-1776 + Dasatinib (first compound 0.8 µM), 0.275; in the assay with SGI-1776 + Dasatinib (first compound 2.53 µM) it was 0.256; with SGI-1776 + Dasatinib (first compound 8 µM), 0.257; with SGI-1776 + Phenformin (first compound 0.08 µM), 0.622; in the assay with SGI-1776 + Phenformin (first compound 0.8 µM), 0.633. Besides, the relative viability with SGI-1776 + Phenformin (first compound 2.53 µM) came out at 0.52; in the assay with SGI-1776 + Phenformin (first compound 8 µM), 0.335; with SGI-1776 + AZD7762 (first compound 0.08 µM), 0.944; in the assay with SGI-1776 + AZD7762 (first compound 0.8 µM), 0.961; in the assay with SGI-1776 + AZD7762 (first compound 2.53 µM), 0.932; with SGI-1776 + AZD7762 (first compound 8 µM), 0.916. The relative viability came out at 0.484 with Entinostat + Decitabine (first compound 0.02 µM); 0.541 with Entinostat + Decitabine (first compound 0.06325 µM); 0.477 with Entinostat + Decitabine (first compound 0.2 µM); 0.431 in the assay with Entinostat + Decitabine (first compound 0.6325 µM); 0.341 in the assay with Entinostat + Decitabine (first compound 2 µM).

Turning to NCI-H1355, the relative viability was 0.778 with SGI-1776 + Dasatinib (first compound 0.08 µM); 0.722 with SGI-1776 + Dasatinib (first compound 0.8 µM); 0.52 with SGI-1776 + Dasatinib (first compound 2.53 µM); 0.604 with SGI-1776 + Dasatinib (first compound 8 µM); 0.451 in the assay with SGI-1776 + Phenformin (first compound 0.08 µM); 0.423 with SGI-1776 + Phenformin (first compound 0.8 µM). Moreover, the relative viability with SGI-1776 + Phenformin (first compound 2.53 µM) stood at 0.401; with SGI-1776 + Phenformin (first compound 8 µM), 0.3; with SGI-1776 + AZD7762 (first compound 0.08 µM), 0.782; with SGI-1776 + AZD7762 (first compound 0.8 µM), 0.772; with SGI-1776 + AZD7762 (first compound 2.53 µM), 0.657; in the assay with SGI-1776 + AZD7762 (first compound 8 µM) it was 0.642. Moreover, the relative viability turned out to be 0.356 with Entinostat + Decitabine (first compound 0.02 µM); 0.335 with Entinostat + Decitabine (first compound 0.06325 µM); 0.3 with Entinostat + Decitabine (first compound 0.2 µM); 0.315 with Entinostat + Decitabine (first compound 0.6325 µM); 0.266 in the assay with Entinostat + Decitabine (first compound 2 µM).
